Measurements from patent publication US20020176820A1, “Functional expression of, and assay for, functional cellular receptors in vivo” (The Trustees of Columbia University, priority 1997, published 2002).
“Also recorded” adds a separate entry of the source.

Assays:
Format in all cases: cell-based
rat I7 odorant receptor [1] = target: T1, rat I7 odorant receptor (Rattus norvegicus, UniProt P23270); experiment: Electro-olfactogram (EOG) recording from AdexCAG-I7-IRES-GFP infected rat olfactory epithelium; conditions: for change of EOG odorant response in I7 virus infected vs uninfected animals: responses normalized to amyl acetate, panel of 74 odorants
T1 construct: expressed in transfected cells; host or cells: rat (Sprague-Dawley) olfactory sensory neurons infected in vivo with recombinant adenovirus AdexCAG-I7-IRES-GFP
T1 sequence (P23270 1-327): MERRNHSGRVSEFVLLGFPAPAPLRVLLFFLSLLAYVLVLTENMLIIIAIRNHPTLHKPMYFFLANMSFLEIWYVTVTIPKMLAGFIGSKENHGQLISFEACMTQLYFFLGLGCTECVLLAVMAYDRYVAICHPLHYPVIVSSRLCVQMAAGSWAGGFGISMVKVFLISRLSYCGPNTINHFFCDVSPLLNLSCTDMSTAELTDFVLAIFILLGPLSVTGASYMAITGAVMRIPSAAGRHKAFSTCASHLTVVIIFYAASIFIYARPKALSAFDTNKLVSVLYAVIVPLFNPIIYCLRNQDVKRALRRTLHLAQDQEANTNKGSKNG
Procedure: Rats (Sprague-Dawley) of various ages and both sexes were used for these experiments. Under anesthesia (ketamine, 90 mg/kg and xylazine, 10 mg/kg, i.p.), 30 μl of rat Ringer solution (in mM, 135, NaCl; 5, I(Cl; 1, CaCl2; 4, MgCl2; 10, HEPES; pH 7.4) containing the AdexCAG-I7-IRES-GFP at a titer of 3×10^9 pfu/ml, and 0.3% fast green dye was slowly injected through the nostril into the right side of the nasal cavity with a short length of thin plastic tubing. The solution was allowed to remain in the nasal cavity. After recovery, the animals were maintained at room temperature with no other treatment until sacrificed.
(§1) The animal was overdosed with anesthetics (Ketamine and xylazine) and decapitated. The head was cut open sagittally and the septum was removed to expose the medial surface of the olfactory turbinates (44 this reference is hereby incorporated by reference in its entirety). The right half of the head was mounted in a wax dish filled with rat Ringer. The medial surface of turbinates was face up and exposed to the air. A continuous stream of humidified clean air was gently blown on the turbinates through tubing to prevent tissue from drying. The opening of the tubing was 8 mm in diameter and placed approximately 10 mm from the turbinate surface.
Odorant solutions were prepared by diluting a 0.5 M stock in DMSO with water. All odorant chemicals were purchased from Aldrich, except Lyral and Lilial which were the kind gift of IFF and Harmon & Reimer Inc. Three milliliters of the odorant solution were placed in a 10 ml glass test tube and capped with a silicon stopper. The concentration of volatile odorant in the 7 cc airspace was allowed to equilibrate for more than 1 hour. All solutions were used within 8 hours. Two 18 gauge needles provided the input and output ports for the odorant containing vapor above the solution. For stimulation a 100 ms pulse of the odorant vapor at 9 psi was injected into the continuous stream of humidified air. The pulse was controlled by a Picospritzer solenoid controlled valve (General Valve). Amyl acetate was used as the reference odorant to control for the variability in responses between animals and during long recording sessions, and was delivered on every sixth trial of odorant stimulation. Three tubes of amyl acetate at 10^−3 M liquid concentration were used alternately in each experiment. The odorant stimulus pathway was cleaned by air between each stimulus presentation. The minimum interval between two adjacent stimuli was 1 minute.
The EOG recording electrode was an Ag/AgCl wire in a capillary glass pipette filled with rat Ringer solution containing 0.6% agarose. The electrode resistance was between 0.5 and 1 MΩ. The recording pipette was placed on the surface of the olfactory epithelium and connected to a differential amplifier (DP-301, Warner Instrument). Placement of the electrode was determined by visualizing GFP fluorescence with a modified stereomicroscope (Kramer Scientific). The EOG potential was observed on a chart recorder, recorded with a DAT tape recorder, and later transferred to computer. For most experiments two electrodes and two amplifiers were used to record EOGs from two different sites of epithelium simultaneously. All experiments were performed at room temperature (22-25° C.).
Odorants were prepared and applied in the following manner. Three milliliters of each odorant solution at a particular concentration were placed in a 10 ml test tube stoppered with a silicone cap, and left for one hour to allow the concentration of volatile odorant in the 7 cc airspace above the solution to equilibrate. Most of the odorants were prepared at a liquid concentration of 10^−2 M to 10^−3 M depending on their relative volatilities. Concentrations of stimulus produced at the olfactory epithelium could not be known, but the system reliably delivered the same amount of stimulus on each trial as there was little variability between responses to successive pulses of the same odorant. […]

rat olfactory epithelium = experiment: EOG recording from control rat olfactory epithelium (uninfected or infected with GFP-only adenovirus)
From the text: as §1
Odorant solutions were prepared by diluting a 0.5 M stock in DMSO with water. All odorant chemicals were purchased from Aldrich, except Lyral and Lilial which were the kind gift of IFF and Harmon & Reimer Inc. Three milliliters of the odorant solution were placed in a 10 ml glass test tube and capped with a silicon stopper. […]
The EOG recording electrode was an Ag/AgCl wire in a capillary glass pipette filled with rat Ringer solution containing 0.6% agarose. […] Placement of the electrode was determined by visualizing GFP fluorescence with a modified stereomicroscope (Kramer Scientific). The EOG potential was observed on a chart recorder, recorded with a DAT tape recorder, and later transferred to computer. […]

rat I7 odorant receptor [2] = target: T1, rat I7 odorant receptor; experiment: Whole-cell patch clamp recording from isolated GFP positive olfactory neurons infected by AdexCAG-I7-IRES-GFP
Procedure: Whole-cell patch clamp recording was performed on isolated cells with detectable fluorescence (FITC filter). Cell dissociation techniques for olfactory epithelium are described in detail elsewhere (45 this reference is hereby incorporated by reference in its entirety); for these experiments we included only papain treatment and mechanical disruption. Recordings were made with the Axopatch 1D amplifier. […] Data were acquired with the PULSE software (HEKA). Odorants were applied by a constant stream perfusion device (SF77, Warner Instruments) or by pressure pulse. The extracellular solution was the rat Ringer described above. All cells were tested to confirm that they had the normal voltage gated currents before investigating their odorant responses.
The holding potential was −60 mV. The currents varied from 60-250 pA in response to a 50 msec pulse of octanal at approximately 10−4 M, values that are within the range previously reported for rat olfactory neurons (28). […] The odorant induced current reversed around 0 mV.

For CCCCCCCCCC=O [decyl aldehyde], the “change of EOG odorant response in I7 virus infected vs uninfected animals” value (“change of EOG odorant response” below) (rat I7 odorant receptor [1]) was “increased odorant response”.

In the case of CCCCCCC=O [heptaldehyde], the “change of EOG odorant response” value (rat I7 odorant receptor [1]) is reported as “increased odorant response”.

In the case of CCCCCC=O [hexaldehyde], the “change of EOG odorant response” value (rat I7 odorant receptor [1]) is reported as “not”.

For CCCCCCCCC=O [nonyl aldehyde], the “change of EOG odorant response” value (rat I7 odorant receptor [1]) was “increased odorant response”.

In the case of CCCCCCCC=O [octyl aldehyde], the “difference in response magnitude (octyl aldehyde compared to amyl acetate) in infected versus control epithelia” value (rat I7 odorant receptor [1]; dose-response at various concentrations, FIG. 5c) is reported as ≤ 7 fold, the “relative EOG amplitude after moving electrode from high fluorescence to regions with little or no GFP expression” value (rat I7 odorant receptor [1]; infected animals) is reported as “significantly reduced” and the “response ratio of octyl aldehyde to amyl acetate” value (rat I7 odorant receptor [1]; infected animals, odorant concentration in solution 5×10^−5 M) is reported as 7 times. For the same molecule, the “EOG response in animals with lower infection rates” value (rat I7 odorant receptor [1]; infection judged by extent of GFP fluorescence) was “comparably smaller”, the “average EOG response in infected vs. uninfected animals” value (rat I7 odorant receptor [1]; normalized to amyl acetate, comparatively high odorant concentrations near saturation) was 1.7 times and the “change of EOG odorant response” value (rat I7 odorant receptor [1]) was “dramatically greater; also recorded: increased odorant response”. The “EOG response in animals infected with adenovirus containing only the GFP gene” value (rat olfactory epithelium; GFP-only adenovirus, same CAG promoter, compared with uninfected animals) was “not different from uninfected animals”, the “response ratio of octyl aldehyde to amyl acetate” value (rat olfactory epithelium; normal (uninfected) animals, 5×10^−5 M in solution) was 1 and the “reversal potential of odorant induced current” value (rat I7 odorant receptor [2]) was “around 0 mV”. For the same molecule, the “latency of odorant induced current” value (rat I7 odorant receptor [2]; 50 msec pulse at approximately 10−4 M) was 100 to 250 ms, the odorant induced current (rat I7 odorant receptor [2]; 50 msec pulse at approximately 10−4 M, holding potential −60 mV) was 60-250 pA and the “cells with odorant induced current” value (rat I7 odorant receptor [2]; isolated GFP positive neurons) was 5 of 5.

CCCCC/C=C/C=O [trans-2-octenal] was tested, and the “change of EOG odorant response” value (rat I7 odorant receptor [1]) was “failed to elicit responses larger than in normal animals”.

CCCCCCCCCCC=O [undecylic aldehyde] was tested, and the “change of EOG odorant response” value (rat I7 odorant receptor [1]) was “not”.
